In general, Inhibition refers to the change of the read-out against control, counted positive when it falls.

In assay [1] the test system is Plasmodium berghei. As to the kind of experiment: Percent inhibition of adenosine uptake by Plasmodium berghei. Format: functional.
Assay [2] concerns Plasmodium berghei. As to the kind of experiment: Percent inhibition of hypoxanthine uptake by Plasmodium berghei. Type of assay: functional.
Assay [3] relates to Salmonella typhimurium. As to the kind of experiment: Mutagenic response at 1000 nmol/plate or lower for strain TA 100 of Salmonella Typhimurium; Not significant. Format: functional, organism-based. The note with it: Salmonella enterica subsp. enterica serovar Typhimurium.
Assay [4] has as its system Salmonella typhimurium. As to the kind of experiment: Mutagenic response at 1000 nmol/plate or lower for strain TA 98 of Salmonella Typhimurium; Not significant. Format: functional, organism-based. To be noted: Salmonella enterica subsp. enterica serovar Typhimurium.
For assay [5], the system named is Mus musculus. The experiment in a line: Decrease in life span of mice treated with compound dose of 160 mg/kg. Type of assay: functional.
The test system of assay [6] is Mus musculus. As to the kind of experiment: Decrease in life span of mice treated with compound dose of 320 mg/kg. Format: functional.

Activity calls are given as the source filed them. The calls are words filed in the database; no cut-off is given here.

On to `CCN(CC)CCCC(C)Nc1c2ccc(Cl)cc2nc2ccc(OC)cc12` (stereo not drawn) [QUINACRINE], for which the Inhibition in the assay on Plasmodium berghei [1] came to 80%; in the assay on Plasmodium berghei [2], 92%.

`c1ccc2c(C3CO3)c3ccccc3nc2c1` (stereo not drawn): the Mutagenicity entry in the assay on Salmonella typhimurium [3] and in the assay with Salmonella typhimurium [4] was “inactive” in each case. Regarding `CCCCN(CCCC)CCC(O)c1c2ccccc2nc2ccccc12` (stereo not drawn), the “Decrease in life span” value in the assay with Mus musculus [5] stood at 0.4 days. Take `CCCCN(CCCC)CC(O)c1ccc2ncc3ccccc3c2c1` (stereo not drawn): the “Decrease in life span” value in the assay on Mus musculus [6] was 0.1 days.

For `OC(CN1CCCCC1)c1c2ccccc2nc2ccccc12` (stereo not drawn), the Inhibition in the assay on Plasmodium berghei [1] is given as 31%; in the assay with Plasmodium berghei [2] it was 50%.

These data come from ChEMBL document CHEMBL1121675, “Syntheses of 9-acridine- and 2-phenanthridinemethanols as potential antimalarials” (1981).
